This is an account of results in patent US7691416B2, “Methods of treating vascular disease” (priority 2002, dated 2010).

The test system of one assay is mouse SMC. The assay can be described thus: SMC proliferation, [3H]thymidine incorporation. The class given is cell-based. The note with it: for SMC proliferation / Inhibition of SMC proliferation versus air treated controls: CO 250 ppm. The source says:
(§1) Animals. Male (250-350 g) Brown Norway rats (RT1^n) were used as aortic graft donors and male (250-350 g) Lewis rats (RT11) as recipients. Dawley (400-450 g) rats were used in the balloon injury model. Adult male C57BL/6, C57/S129, p21^−/− and p53^−/− null mice were purchased from Jackson Laboratory (Bar Harbor, Me.). mkk3^(−/−) null mice were generated as described Lu et al. (EMBO. 18:1845-1857 (1999)). The inos^−/− and enos^−/− mice were bred at the University of Pittsburgh. Aortic transplant model. Aortic transplantation was performed as described in Shimizu et al. (Nat. Med. 7:738-741 (2001)). Briefly, 3 to 4 cm of descending aorta was harvested from the donor and implanted between the renal arteries and the aortic bifurcation of the recipient. Both edges of the native abdominal aorta were ligated. Balloon injury model. Balloon angioplasty was carried out as described in Murakami et al. (Atherosclerosis 157:361-368 (2001)). Briefly, a 2 Fr. arterial embolectomy catheter (Baxter, Chicago, Ill.) was inserted into the common carotid artery, and injury was created by inflating the balloon to 5 atmospheres of pressure for 5 minutes. The arteries were flushed and the external carotid artery was ligated, ensuring return of blood flow through the common and internal carotid arteries. Injury of the vessel wall and subsequent pathological analysis was made in a manner that was blinded to the treatment group. CO exposure. CO was delivered to animals as described in Otterbein et al. (Nat. Med. 6:422-428 (2000)). Graft donors and recipients were exposed to CO (250 ppm) for two days before transplantation and for 56 days immediately following transplantation. In the balloon injury model, rats received either no pretreatment or were exposed to CO (250 ppm) for one hour prior to injury. Following surgery rats were housed in room air for two weeks. Cells. Primary mouse and rat smooth muscle cells (SMC) were isolated and cultured as described in Laubach et al. (Proc Natl Acad Sci USA 92:10688-9 (1995)). Mouse SMC isolated from HO-1^−/− mice were obtained as described in Duckers et al. (Nat. Med. 7:693-698 (2001)). Cell treatment and reagents. Guanylate cyclase inhibitor 1H(1,2,4) oxadiazolo(4,3-a)quinoxalin-1 (ODQ; Calbiochem-Novabiochem, San Diego, Calif.; 10-100 μM) and p38 MAPK inhibitor pyridinyl imidazol SB203580 (Calbiochem; 5-20 μM) were dissolved in DMSO. The cGMP analogue 8-bromo-cGMP sodium salt (8-Br-cGMP; Sigma-Aldrich, St. Louis, Mo.; 10-100 μM) and the PKG inhibitor (10-100 μM; Alexis Biochemicals) were dissolved in water. Cell counts and [^3H] thymidine incorporation. Rat and mouse SMC were isolated and cultured as described in Peyton et al. (Blood 99:4443-4448 (2002)). Proliferation assays were carried out as described in Petkova et al. (J Biol. Chem. 276:7932-7936 (2001)). For [^3H] thymidine incorporation studies, cells were serum-starved overnight and then stimulated with 10% serum containing 5 μCi/ml [^3H] thymidine (New England Nuclear, Boston Mass.). [^3H]thymidine incorporation was measured by scintillation spectroscopy and presented as mean counts/min/well. Histomorphometric analysis. Aortic grafts and carotid arteries were harvested at 56 and 14 days respectively. Vessels were fixed, embedded, and serially sectioned (5μ) in toto. Every third slide was stained with Hematoxylin and Eosin (H&E) for histomorphometric analyses. In both models, one or two images per slide at a resolution of 1520×1080 pixels were captured at a magnification of 25× with a Zeiss microscope (Axioskop, Iowa City, Iowa), RT color SPOT (Diagnostic Instrument, Inc., Saint Joseph, Mich.) and Windows NT (Compaq Computer) using Adobe Photoshop version 5.5 software. Areas from eight to ten captured images were calculated using digital imaging software as number of pixels corresponding to those areas. Twenty-four to forty-eight sections from each group were statistically analyzed with SPSS software version 10. Immunostaining and cell population histomorphometric analysis. […]
A general note: Dividing cells build labelled thymidine or BrdU into new DNA.

Another assay concerns rat aortic SMC. The assay can be described thus: Flow cytometry cell cycle analysis. The class given is cell-based. Particulars: CO 250 ppm, 24 hours. From the text: (§2) Animals. Male (250-350 g) Brown Norway rats (RT1^n) were used as aortic graft donors and male (250-350 g) Lewis rats (RT11) as recipients. Dawley (400-450 g) rats were used in the balloon injury model. Adult male C57BL/6, C57/S129, p21^−/− and p53^−/− null mice were purchased from Jackson Laboratory (Bar Harbor, Me.). mkk3^(−/−) null mice were generated as described Lu et al. (EMBO. 18:1845-1857 (1999)). The inos^−/− and enos^−/− mice were bred at the University of Pittsburgh. Aortic transplant model. Aortic transplantation was performed as described in Shimizu et al. (Nat. Med. 7:738-741 (2001)). Briefly, 3 to 4 cm of descending aorta was harvested from the donor and implanted between the renal arteries and the aortic bifurcation of the recipient. Both edges of the native abdominal aorta were ligated. Balloon injury model. Balloon angioplasty was carried out as described in Murakami et al. (Atherosclerosis 157:361-368 (2001)). […] [^3H]thymidine incorporation was measured by scintillation spectroscopy and presented as mean counts/min/well. […] Areas from eight to ten captured images were calculated using digital imaging software as number of pixels corresponding to those areas. Twenty-four to forty-eight sections from each group were statistically analyzed with SPSS software version 10. […]

The test system of a further assay is p21Cip1. The assay can be described thus: Western blot of p21Cip1 expression. The class given is cell-based, mouse.
Excerpt: as §1
(In general: Immunoblotting shows a protein as a band on a membrane.)

Another assay concerns cGMP. The assay can be described thus: cGMP immunoassay (EIA) of SMC lysates. The class given is cell-based, mouse. Particulars: CO 250 ppm for 8 h or 16 h.
Excerpt: as §2

As to `[C-]#[O+]` [CO, carbon monoxide], the SMC proliferation entry with mouse SMC (SMC from ho-1-/- mice) is reported as “significantly inhibited”; in the assay on mouse SMC (SMC from p21Cip1 deficient mice (p21-/-)), “not suppressed”; with mouse SMC (SMC from p53-/- mice, similar extent as wild type) it was “inhibited proliferation”. The “Inhibition of SMC proliferation versus air treated controls” value with mouse SMC (SMC from nos-2-/- (iNOS) mice) was determined as 51±25%; with mouse SMC (SMC from nos-3-/- (eNOS) mice), 54±11%; in the assay with mouse SMC (SMC from wild type mice), 51±12.9%. The Cell proliferation result in the assay with mouse SMC (cells from mkk3-/- mice exposed to CO) is reported as “did not inhibit proliferation”. For the same compound, in the assay on rat aortic SMC, the Cell cycle distribution entry is “accumulated in the G0/G1 phase”. In addition, the “Time of maximal p21Cip1 expression after CO exposure” value in the assay with p21Cip1 (CO 250 ppm, increased by 4 hours, basal at 24 hours) came out at 16 h. Also, the p21Cip1 protein expression entry with p21Cip1 (SMC exposed to CO (250 ppm)) was “up-regulated”. Besides, in the assay with cGMP, the “Intracellular cGMP levels” value was “increased”.
